Results taken from BindingDB's records for doi:10.1111/cbdd.12189 (Tianjin Medical University, 2013).

What was measured:
[1] = target: T1, Tyrosine-protein phosphatase non-receptor type 2 (Homo sapiens, UniProt P17706); experiment: PTP activity assay; conditions: pH 6; 37 °C
T1 sequence (P17706 whole entry): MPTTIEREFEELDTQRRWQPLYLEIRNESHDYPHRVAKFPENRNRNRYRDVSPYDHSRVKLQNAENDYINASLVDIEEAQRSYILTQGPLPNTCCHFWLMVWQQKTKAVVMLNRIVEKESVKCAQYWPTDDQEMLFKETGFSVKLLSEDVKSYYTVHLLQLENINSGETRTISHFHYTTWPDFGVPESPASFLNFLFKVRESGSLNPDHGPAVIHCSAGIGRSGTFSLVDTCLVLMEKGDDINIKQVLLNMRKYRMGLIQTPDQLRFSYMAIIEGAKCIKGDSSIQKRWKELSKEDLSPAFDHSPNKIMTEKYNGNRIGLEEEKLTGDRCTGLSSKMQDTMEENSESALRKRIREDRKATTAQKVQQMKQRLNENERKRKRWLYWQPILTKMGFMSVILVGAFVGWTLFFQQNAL
Procedure: (§1) The enzyme activity was measured using p-nitrophenyl phosphate (pNPP) as substrate in a 96-well plate and by detecting the absorbance at 405 nm for the amount of produced p-nitrophenol. Purified human recombinant PTP1B or TCPTP (0.05 µg) in 50 µL buffer containing 50 mM citrate (pH 6.0), 0.1 M NaCl, 1 mM EDTA, and 1 mM DTT and test compounds were added to each well. Each mixture was pre-incubated for 15 min at room temperature, followed by the addition of 50 µL of reaction buffer containing 2 mM pNPP and incubated at 37°C for 30 min.

[2] = target: T2, Tyrosine-protein phosphatase non-receptor type 1 (Homo sapiens, UniProt P18031); experiment: PTP activity assay; conditions: pH 6; 37 °C
T2 sequence (P18031 whole entry): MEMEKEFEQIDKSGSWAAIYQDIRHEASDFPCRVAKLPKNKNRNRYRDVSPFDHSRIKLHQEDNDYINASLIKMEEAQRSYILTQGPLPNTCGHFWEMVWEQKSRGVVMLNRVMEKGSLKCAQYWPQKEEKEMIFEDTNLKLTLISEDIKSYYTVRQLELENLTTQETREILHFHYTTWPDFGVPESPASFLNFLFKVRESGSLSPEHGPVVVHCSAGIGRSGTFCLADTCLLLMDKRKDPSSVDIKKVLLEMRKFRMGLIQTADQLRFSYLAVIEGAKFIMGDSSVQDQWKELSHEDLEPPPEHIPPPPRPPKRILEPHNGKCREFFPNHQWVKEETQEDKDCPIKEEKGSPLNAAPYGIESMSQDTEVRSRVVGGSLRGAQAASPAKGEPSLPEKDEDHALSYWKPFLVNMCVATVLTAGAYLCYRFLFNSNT
Procedure: as §1

Compound | IC50 [1] | IC50 [2]
O=C1NC(=O)/C(=C/c2ccccc2OCc2ccc(Cl)cc2Cl)N1 [(5Z)‐5‐({2‐[(2,4‐ dichlorophenyl)methoxy]phenyl}methylidene)imidazolidine‐ 2,4‐dione (comp#c)] | 18.7 µM | 4.1 µM
O=C1NC(=O)/C(=C/c2ccccc2OCc2cccc(Cl)c2)N1 [(5Z)‐5‐({2‐[(3‐ chlorophenyl)methoxy]phenyl}methylidene)imidazolidine‐ 2,4‐dione (comp#a)] | 36.8 µM | 37.4 µM
O=C1NC(=O)/C(=C/c2ccccc2OCc2ccc(Cl)cc2)N1 [(5Z)‐5‐({2‐[(4‐ chlorophenyl)methoxy]phenyl}methylidene)imidazolidine‐ 2,4‐dione (comp#b)] | 35.9 µM | 4.6 µM
O=C1NC(=O)/C(=C/c2cccc(OCc3ccc(Cl)cc3Cl)c2)N1 [(5Z)‐5‐({3‐[(2,4‐ dichlorophenyl)methoxy]phenyl}methylidene)imidazolidine‐ 2,4‐dione (comp#h)] | > 138 µM | 4.1 µM
O=C1NC(=O)/C(=C/c2cccc(OCc3ccc(Cl)c(Cl)c3)c2)N1 [(5Z)‐5‐({3‐[(3,4‐ dichlorophenyl)methoxy]phenyl}methylidene)imidazolidine‐ 2,4‐dione (comp#i)] | 33.6 µM | 2.8 µM
O=C1NC(=O)/C(=C/c2cccc(OCc3ccc(Cl)cc3)c2)N1 [(5Z)‐5‐({3‐[(4‐ chlorophenyl)methoxy]phenyl}methylidene)imidazolidine‐ 2,4‐dione (comp#g)] | 137 µM | 40.8 µM
O=C1NC(=O)/C(=C/c2ccc(OCc3ccc(Cl)cc3Cl)cc2)N1 [(5Z)‐5‐({4‐[(2,4‐ dichlorophenyl)methoxy]phenyl}methylidene)imidazolidine‐ 2,4‐dione (comp#j)] | 11.6 µM | 
O=C1NC(=O)/C(=C/c2ccc(OCc3ccc(Cl)c(Cl)c3)cc2)N1 [(5Z)‐5‐({4‐[(3,4‐ dichlorophenyl)methoxy]phenyl}methylidene)imidazolidine‐ 2,4‐dione (comp#k)] | 33.9 µM | 
COc1ccc(COc2ccc(/C=C3\NC(=O)NC3=O)cc2)cc1 [(5Z)‐5‐({4‐[(4‐ methoxyphenyl)methoxy]phenyl}methylidene)imidazolidine‐ 2,4‐dione (comp#l)] | 31.4 µM | 3.4 µM
O=C1NC(=O)/C(=C/c2cccc(OCc3ccccc3)c2)N1 [(5Z)‐5‐{[3‐ (benzyloxy)phenyl]methylidene}imidazolidine‐2,4‐ dione (comp#d)] | > 170 µM | > 170 µM
O=C1NC(=O)/C(=C/c2cccc(OCCc3ccccc3)c2)N1 [(5Z)‐5‐{[3‐(2‐ phenylethoxy)phenyl]methylidene}imidazolidine‐2,4‐ dione (comp#e)] | 44.1 µM | 11.4 µM
O=C1NC(=O)/C(=C/c2cccc(OCCCc3ccccc3)c2)N1 [(5Z)‐5‐{[3‐(3‐ phenylpropoxy)phenyl]methylidene}imidazolidine‐2,4‐ dione (comp#f)] | 22.3 µM | 41.9 µM
